Source: article PMC12290960, “Eremanthus erythropappus as a Source of Antiparasitic Agents: In Vitro and In Vivo Efficacy against Schistosoma mansoni” (ACS Omega, 2025)

Columns and labels:
S. mansoni adult worms = experiment: In vitro antischistosomal assay on adult worms (mortality/viability by motility); type: cell-based, Schistosoma mansoni; settings: for EC50: Schistosoma mansoni, mortality of S. mansoni adult worms, 95% CI in square brackets; for in vitro antischistosomal activity (in words): concentrations of up to 50 μM
in vitro = settings: African green monkey
[1] = system: S. mansoni (49 day old adult infection); experiment: In vivo antischistosomal assay in S. mansoni-infected mice (worm burden, oogram, fecal egg count); design: species or system Schistosoma mansoni; settings: for worm burden reduction (WBR): single dose 400 mg/kg p.o., treated 49 days postinfection, vs vehicle control
Procedure: The Belo Horizonte strain of Schistosoma mansoni was maintained in its life cycle using Biomphalaria glabrata snails (intermediate hosts) and female Swiss mice (final hosts). Three week old female Swiss mice (∼20 g) were obtained from […] para Laboratório (São Paulo, Brazil). Infected snails and mice were housed under controlled conditions (25 °C, 50% humidity, and 12 h light/dark cycles) with ad libitum access to food and water. Mice were percutaneously infected with 80 S. mansoni cercariae and treated 49 days postinfection (adult worm stage). […] At 63 days postinfection, mice were euthanized (CO2), and worms were recovered by mesenteric perfusion. Worm burden reduction was calculated after sexing, , and fecal egg counts were performed as previously described. , The study complied with ARRIVE guidelines, including randomization to minimize bias.

Vero cells = experiment: Cytotoxicity in mammalian cells (MTT assay); settings: CC50 on Vero cells divided by EC50 on schistosomes

Compound	EC50 (S. mansoni adult worms) [µM]	in vitro antischistosomal activity (in words) (S. mansoni adult worms)	CC50 (in vitro) [µM]	worm burden reduction (WBR) [1] [%]	SI (selectivity index) (Vero cells)	CC50 at 72 h (in vitro) [µM]	reduction in immature egg deposition (oogram, EBR immature) ([1]; 400 mg/kg p.o., 49 day old adult infection) [%]	reduction in number of eggs per gram of feces (egg load, EBR) ([1]; 400 mg/kg p.o., 49 day old adult infection, vs control) [%]
C[C@H]1C(=O)CC[C@@H]2[C@]1(C)CC[C@H]1[C@@]2(C)CC[C@@]2(C)[C@@H]3CC(C)(C)CC[C@]3(C)CC[C@]12C [friedelin (7), friedelan-3-one]	> 50	inactive	–	–	–	–	–	–
C=C(C)[C@@H]1CC[C@]2(C(=O)O)CC[C@]3(C)[C@H](CC[C@@H]4[C@@]5(C)CC[C@H](O)C(C)(C)[C@@H]5CC[C@]43C)[C@@H]12 [betulinic acid (8), 3β-hydroxy-20(29)-lupaene-28-oic acid]	36.8	–	> 500	41.9	–	–	–	–
COc1ccc(-c2cc(=O)c3c(O)cc(O)cc3o2)cc1 [acacetin (14), 5,7-dihydroxy-4′-methoxyflavone]	> 50	inactive	–	–	–	–	–	–
O=C(C1CCCCC1)N1CC(=O)N2CCc3ccccc3C2C1 (stereo not shown) [praziquantel]	0.8	–	–	92.6	>625	> 500	96.8	93.9
